Key:
CD73 [1] = target: T1, CD73 (Homo sapiens (Human), UniProt P21589); type: biochemical; settings: 1 mM NaH2PO4 in enzyme buffer, CD73 0.3 nM, AMP 15 uM
CD73 [2] = target: T1, CD73; experiment: MDA-MB-231 Cell Based CD73 Activity Assay (DMEM); settings: MDA-MB-231-GFP cells, DMEM medium with 10% human plasma, 200 uM AMP

T1 sequence (P21589 27-574): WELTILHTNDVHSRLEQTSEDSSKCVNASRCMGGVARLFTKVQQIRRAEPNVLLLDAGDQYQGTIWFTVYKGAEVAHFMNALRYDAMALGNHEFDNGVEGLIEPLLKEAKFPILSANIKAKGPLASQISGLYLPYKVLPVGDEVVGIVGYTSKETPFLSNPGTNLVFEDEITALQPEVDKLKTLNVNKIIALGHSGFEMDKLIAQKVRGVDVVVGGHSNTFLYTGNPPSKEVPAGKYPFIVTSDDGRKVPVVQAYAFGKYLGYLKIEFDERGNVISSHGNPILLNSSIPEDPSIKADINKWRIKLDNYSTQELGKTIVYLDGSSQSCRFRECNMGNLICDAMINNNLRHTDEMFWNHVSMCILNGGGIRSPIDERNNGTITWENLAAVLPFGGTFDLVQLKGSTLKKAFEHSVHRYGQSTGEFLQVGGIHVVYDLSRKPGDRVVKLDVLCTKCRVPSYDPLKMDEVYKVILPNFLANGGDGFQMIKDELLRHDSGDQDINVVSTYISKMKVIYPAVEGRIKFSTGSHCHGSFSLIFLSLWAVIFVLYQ

O=c1[nH]cc(-c2cc(N3CC4CCCCC43)c3nccn3n2)c(=O)[nH]1 (centres unmarked) [Example 451, 5-(8-(7-azabicyclo[4.2.0]octan-7-yl)imidazo[1,2-b]pyridazin-6-yl)pyrimidine-2,4(1H,3H)-dione]
IC50 (CD73 [1]): 67.6 nM
EC50 (CD73 [2]): 167 nM

O=c1[nH]cc(-c2cc(OCC(F)(F)F)c3nccn3n2)c(=O)[nH]1 [Example 675, 5-(8-(2,2,2-trifluoroethoxy)imidazo[1,2-b]pyridazin-6-yl)pyrimidine-2,4(1H,3H)-dione]
IC50 (CD73 [1]): 49.5 nM
EC50 (CD73 [2]): 78.7 nM

O=c1[nH]cc(-c2cc([C@H]3C[C@@H]3c3ccc4nc(C(F)(F)F)n(CC(F)(F)F)c4c3)c3nccn3n2)c(=O)[nH]1 [Example 620, 5-(8-((1S,2S)-2-(1-(2,2,2-trifluoroethyl)-2-(trifluoromethyl)-1H-benzo[d]imidazol-6-yl)cyclopropyl)imidazo[1,2-b]pyridazin-6-yl)pyrimidine-2,4(1H,3H)-dione]
IC50 (CD73 [1]): 1.22 nM
EC50 (CD73 [2]): 0.07 nM

C[C@@H](CNc1cc(-c2c[nH]c(=O)[nH]c2=O)nn2ccnc12)c1ccccc1 [Example 500, (R)-5-(8-((2-phenylpropyl)amino)imidazo[1,2-b]pyridazin-6-yl)pyrimidine-2,4(1H,3H)-dione]
IC50 (CD73 [1]): 108 nM
EC50 (CD73 [2]): 457 nM

O=C(OCC(F)(F)F)N1CC2(C1)CN(c1cc(-c3c[nH]c(=O)[nH]c3=O)nn3ccnc13)CC2(F)F [Example 506, 2,2,2-trifluoroethyl 6-(6-(2,4-dioxo-1,2,3,4-tetrahydropyrimidin-5-yl)imidazo[1,2-b]pyridazin-8-yl)-8,8-difluoro-2,6-diazaspiro[3.4]octane-2-carboxylate]
IC50 (CD73 [1]): 8.82 nM
EC50 (CD73 [2]): 8.67 nM

O=c1[nH]cc(-c2cc([C@H]3C[C@@H]3c3ccc(C(F)(F)F)cn3)c3ncc(F)n3n2)c(=O)[nH]1 [Example 144, 5-(3-fluoro-8-((1S,2S)-2-(5-(trifluoromethyl)pyridin-2-yl)cyclopropyl)imidazo[1,2-b]pyridazin-6-yl)pyrimidine-2,4(1H,3H)-dione]
IC50 (CD73 [1]): 2.3 nM
EC50 (CD73 [2]): 6.17 nM

O=C(CC(F)(F)F)N1CCC12CCN(c1cc(-c3c[nH]c(=O)[nH]c3=O)nn3ccnc13)C2 (centres unmarked) [Example 655, 5-(8-(1-(3,3,3-trifluoropropanoyl)-1,6-diazaspiro[3.4]octan-6-yl)imidazo[1,2-b]pyridazin-6-yl)pyrimidine-2,4(1H,3H)-dione]
IC50 (CD73 [1]): 40.4 nM
EC50 (CD73 [2]): 254 nM

O=c1[nH]cc(-c2cc([C@H]3C[C@@H]3c3ccc4ccn(CC(F)(F)F)c4n3)c3nccn3n2)c(=O)[nH]1 [Example 126, 5-(8-((1S,2S)-2-(1-(2,2,2-trifluoroethyl)-1H-pyrrolo[2,3-b]pyridin-6-yl)cyclopropyl)imidazo[1,2-b]pyridazin-6-yl)pyrimidine-2,4(1H,3H)-dione]
IC50 (CD73 [1]): 1.13 nM
EC50 (CD73 [2]): 0.46 nM

O=c1[nH]cc(-c2cc(N3CC(OC(F)F)C(F)(F)C3)c3nccn3n2)c(=O)[nH]1 (centres unmarked) [Example 202, 5-[8-[4-(difluoromethoxy)-3,3-difluoro-pyrrolidin-1-yl]imidazo[1,2-b]pyridazin-6-yl]-1H-pyrimidine-2,4-dione]
IC50 (CD73 [1]): 1.04 nM
EC50 (CD73 [2]): 4.25 nM

O=c1[nH]cc(-c2cc([C@H]3C[C@@H]3c3ccc4onc(C(F)(F)F)c4c3)c3nccn3n2)c(=O)[nH]1 (racemic) [Example 327, 5-(8-((1S,2S)-2-(3-(trifluoromethyl)benzo[d]isoxazol-5-yl)cyclopropyl)imidazo[1,2-b]pyridazin-6-yl)pyrimidine-2,4(1H,3H)-dione]
IC50 (CD73 [1]): 1.79 nM
EC50 (CD73 [2]): 50 nM

O=c1[nH]cc(-c2cc(NCCc3c[nH]c4ccc(Cl)cc34)c3nccn3n2)c(=O)[nH]1 [Example 495, 5-(8-((2-(5-chloro-1H-indol-3-yl)ethyl)amino)imidazo[1,2-b]pyridazin-6-yl)pyrimidine-2,4(1H,3H)-dione]
IC50 (CD73 [1]): > 250 nM
EC50 (CD73 [2]): 748 nM

O=c1[nH]cc(-c2cc([C@H]3C[C@@H]3c3ccc4ccc(OCC(F)(F)F)nc4c3)c3nccn3n2)c(=O)[nH]1 (racemic) [Example 599, 5-(8-((1S,2S)-2-(2-(2,2,2-trifluoroethoxy)quinolin-7-yl)cyclopropyl)imidazo[1,2-b]pyridazin-6-yl)pyrimidine-2,4(1H,3H)-dione]
IC50 (CD73 [1]): 2.38 nM
EC50 (CD73 [2]): 41.2 nM

N#Cc1ccc(C2CN(c3cc(-c4c[nH]c(=O)[nH]c4=O)nn4ccnc34)C2)cc1 [Example 247, 4-(1-(6-(2,4-dioxo-1,2,3,4-tetrahydropyrimidin-5-yl)imidazo[1,2-b]pyridazin-8-yl)azetidin-3-yl)benzonitrile]
IC50 (CD73 [1]): 41.9 nM
EC50 (CD73 [2]): 93.6 nM

O=c1[nH]cc(-c2cc(OCC(F)(F)C(F)(F)F)c3nccn3n2)c(=O)[nH]1 [Example 690, 5-(8-(2,2,3,3,3-pentafluoropropoxy)imidazo[1,2-b]pyridazin-6-yl)pyrimidine-2,4(1H,3H)-dione]
IC50 (CD73 [1]): 12.7 nM
EC50 (CD73 [2]): 21.9 nM

CC1(C)CN(c2cc(-c3c[nH]c(=O)[nH]c3=O)nn3ccnc23)CC1(F)F [Example 80, 5-[8-(3,3-difluoro-4,4-dimethyl-pyrrolidin-1-yl)imidazo[1,2-b]pyridazin-6-yl]-1H-pyrimidine-2,4-dione]
IC50 (CD73 [1]): 1.81 nM
EC50 (CD73 [2]): 6.79 nM

O=c1[nH]cc(-c2cc([C@H]3C[C@@H]3c3ccc(OC(F)F)cn3)c3nccn3n2)c(=O)[nH]1 [Example 137, 5-(8-((1S,2S)-2-(5-(difluoromethoxy)pyridin-2-yl)cyclopropyl)imidazo[1,2-b]pyridazin-6-yl)pyrimidine-2,4(1H,3H)-dione]
IC50 (CD73 [1]): 1.28 nM
EC50 (CD73 [2]): 4.68 nM

CC(C)n1ncc2ccc([C@H]3C[C@@H]3c3cc(-c4c[nH]c(=O)[nH]c4=O)nn4ccnc34)cc21 (racemic) [Example 119, 5-(8-((1S,2S)-2-(1-isopropyl-1H-indazol-6-yl)cyclopropyl)imidazo[1,2-b]pyridazin-6-yl)pyrimidine-2,4(1H,3H)-dione and 5-(8-((1R,2R)-2-(1-isopropyl-1H-indazol-6-yl)cyclopropyl)imidazo[1,2-b]pyridazin-6-yl)pyrimidine-2,4(1H,3H)-dione]
IC50 (CD73 [1]): 0.56 nM
EC50 (CD73 [2]): 1.09 nM

Cc1nc2c(N3CC(C)(C)C(F)(F)C3)cc(-c3c[nH]c(=O)[nH]c3=O)nn2c1F [Example 422, 5-(8-(3,3-difluoro-4,4-dimethylpyrrolidin-1-yl)-3-fluoro-2-methylimidazo[1,2-b]pyridazin-6-yl)pyrimidine-2,4(1H,3H)-dione]
IC50 (CD73 [1]): 72.7 nM
EC50 (CD73 [2]): 155 nM

O=C1N(CC(F)(F)C(F)F)c2cc([C@H]3C[C@@H]3c3cc(-c4c[nH]c(=O)[nH]c4=O)nn4ccnc34)ccc2C12CC2 (racemic) [Example 736, 5-(8-((1S,2S)-2-(2′-oxo-1′-(2,2,3,3-tetrafluoropropyl)spiro[cyclopropane-1,3′-indolin]-6′-yl)cyclopropyl)imidazo[1,2-b]pyridazin-6-yl)pyrimidine-2,4(1H,3H)-dione]
IC50 (CD73 [1]): 1.91 nM
EC50 (CD73 [2]): 0.21 nM

O=c1[nH]cc(-c2cc([C@H]3C[C@@H]3c3cc(OCC4CC4(F)F)c(Cl)cn3)c3nccn3n2)c(=O)[nH]1 (mixture of isomers) [Example 597, 5-(8-((1S,2S)-2-(5-chloro-4-((2,2-difluorocyclopropyl)methoxy)pyridin-2-yl)cyclopropyl)imidazo[1,2-b]pyridazin-6-yl)pyrimidine-2,4(1H,3H)-dione]
IC50 (CD73 [1]): 2.79 nM
EC50 (CD73 [2]): 5.93 nM

O=c1[nH]cc(-c2cc(N3C[C@H]4CC[C@H]4C3)c3nccn3n2)c(=O)[nH]1 [Example 476, 5-(8-(cis-3-azabicyclo[3.2.0]heptan-3-yl)imidazo[1,2-b]pyridazin-6-yl)pyrimidine-2,4(1H,3H)-dione]
IC50 (CD73 [1]): 38.8 nM
EC50 (CD73 [2]): 32.2 nM

O=c1[nH]cc(-c2cc(OCC(F)(F)c3ccccn3)c3nccn3n2)c(=O)[nH]1 [Example 692, 5-(8-(2,2-difluoro-2-(pyridin-2-yl)ethoxy)imidazo[1,2-b]pyridazin-6-yl)pyrimidine-2,4(1H,3H)-dione]
IC50 (CD73 [1]): 3.2 nM
EC50 (CD73 [2]): 23.1 nM

O=c1[nH]cc(-c2cc([C@H]3C[C@@H]3c3ccc4ncn(CC(F)(F)F)c4c3)c3nccn3n2)c(=O)[nH]1 [Example 322, 5-(8-((1S,2S)-2-(1-(2,2,2-trifluoroethyl)-1H-benzo[d]imidazol-6-yl)cyclopropyl)imidazo[1,2-b]pyridazin-6-yl)pyrimidine-2,4(1H,3H)-dione]
IC50 (CD73 [1]): 0.8 nM
EC50 (CD73 [2]): 0.07 nM

O=C(NC1CN(c2cc(-c3c[nH]c(=O)[nH]c3=O)nn3ccnc23)CC1(F)F)OCC(F)(F)F (centres unmarked) [Example 206, 2,2,2-trifluoroethyl N-[1-[6-(2,4-dioxo-1H-pyrimidin-5-yl)imidazo[1,2-b]pyridazin-8-yl]-4,4-difluoro-pyrrolidin-3-yl]carbamate]
IC50 (CD73 [1]): 4.97 nM
EC50 (CD73 [2]): 28.7 nM

O=C(c1cccc(C2CN(c3cc(-c4c[nH]c(=O)[nH]c4=O)nn4ccnc34)C2)c1)N1CC(F)(F)C1 [Example 268, 5-(8-(3-(3-(3,3-difluoroazetidine-1-carbonyl)phenyl)azetidin-1-yl)imidazo[1,2-b]pyridazin-6-yl)pyrimidine-2,4(1H,3H)-dione]
IC50 (CD73 [1]): 97 nM
EC50 (CD73 [2]): 135 nM

C[C@H](CNc1cc(-c2c[nH]c(=O)[nH]c2=O)nn2ccnc12)c1ccccc1 [Example 499, (S)-5-(8-((2-phenylpropyl)amino)imidazo[1,2-b]pyridazin-6-yl)pyrimidine-2,4(1H,3H)-dione]
IC50 (CD73 [1]): 163 nM
EC50 (CD73 [2]): 501 nM

O=c1[nH]cc(-c2cc([C@H]3C[C@@H]3c3cc(C(F)(F)F)c4ncccc4c3)c3ncc(F)n3n2)c(=O)[nH]1 [Example 134, 5-(3-fluoro-8-((1S,2S)-2-(8-(trifluoromethyl)quinolin-6-yl)cyclopropyl)imidazo[1,2-b]pyridazin-6-yl)pyrimidine-2,4(1H,3H)-dione]
IC50 (CD73 [1]): 1.17 nM
EC50 (CD73 [2]): 22.7 nM

C#CC1CCN(c2cc(-c3c[nH]c(=O)[nH]c3=O)nn3ccnc23)C1 (centres unmarked) [Example 684, 5-(8-(3-ethynylpyrrolidin-1-yl)imidazo[1,2-b]pyridazin-6-yl)pyrimidine-2,4(1H,3H)-dione]
IC50 (CD73 [1]): 1.29 nM
EC50 (CD73 [2]): 5.84 nM
